Benchmark concentration data for 54 compounds are collected here from the supplement of paper PMC9151546.

The structures appear in SMILES notation. Where a name gives a salt, the structure may show the parent alone. ± gives the standard deviation of the averaged measurements.

Assay [1] relates to CHO-K1. Kind of assay: benchmark concentration for 30% increase in micronucleus frequency (BMC30); higher = less potent clastogen. As to the method: (§1)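 Benchmark concentration modelling (PROAST, Hill/exponential model families) of the 19-concentration flow-cytometric micronucleus assay in CHO-K1 cells, with and without rat liver S9. Only non-cytotoxic and adequate (relative survival >=40%) concentrations were used. BMR was a 30% increase in %MN (BMC30) or a 60% increase in %hypodiploid (BMC60) over control.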

Assay [2] concerns CHO-K1. Kind of assay: benchmark concentration for 60% increase in hypodiploid frequency (BMC60); higher = less potent aneugen. The method, then: as §1
Setting [3] is: S9 metabolic activation: with S9.
Where [4] appears, read: S9 metabolic activation: without S9.

Take `CCCCc1oc2ccccc2c1C(=O)c1cc(I)c(OCCN(CC)CC)c(I)c1` [Amiodarone hydrochloride]: the benchmark concentration in the assay on CHO-K1 [1] (setting [3]) is 16 µM; in the assay on CHO-K1 [2] (setting [3]), 11 µM.
On to `NNC(=O)c1ccncc1` [Isoniazid], for which the figures for the benchmark concentration in the assay on CHO-K1 [1] (setting [3]) and with CHO-K1 [2] (setting [4]) were 21 µM and 51 µM, respectively.
Take `CN(C)c1ccc(C(=O)c2ccc(N(C)C)cc2)cc1` [Michlers ketone]: the benchmark concentration with CHO-K1 [1] (setting [3]) was 27 µM; in the assay on CHO-K1 [2] (setting [3]) it was 22 µM.
Consider `ClC1=C(Cl)[C@]2(Cl)[C@@H]3[C@@H]4C[C@@H]([C@H]5O[C@@H]45)[C@@H]3[C@@]1(Cl)C2(Cl)Cl` [Dieldrin], for which the benchmark concentration was determined as 74 µM with CHO-K1 [1] (setting [4]) and 90 µM with CHO-K1 [2] (setting [4]).
`O=NN(c1ccccc1)c1ccccc1` [N-Nitrosodiphenylamine]: the benchmark concentration in the assay on CHO-K1 [1] (setting [3]) was 120 µM; in the assay on CHO-K1 [1] (setting [4]), 72 µM; in the assay on CHO-K1 [2] (setting [4]), 25 µM.
With `CC(C)(c1ccc(O)cc1)c1ccc(O)cc1` [Bisphenol A], the figures for the benchmark concentration with CHO-K1 [1] (setting [4]) and in the assay on CHO-K1 [2] (setting [4]) were 71 µM and 48 µM, respectively.
On to `CN(C)C(=O)Nc1ccc(Cl)cc1` [Monuron], for which the benchmark concentration in the assay on CHO-K1 [1] (setting [4]) was 8.6 µM; with CHO-K1 [2] (setting [4]), 82 µM.
With `ClC(Cl)=C(c1ccc(Cl)cc1)c1ccc(Cl)cc1` [p,p'-DDE], the benchmark concentration in the assay with CHO-K1 [1] (setting [3]) is 51 µM; in the assay with CHO-K1 [1] (setting [4]) it was 29 µM; with CHO-K1 [2] (setting [4]), 16 µM.
As for `CCSC(=O)N1CCCCCC1` [Molinate], the figures for the benchmark concentration with CHO-K1 [1] (setting [3]) and in the assay on CHO-K1 [2] (setting [4]) were 41 µM and 61.5 ± 3.5 µM, respectively.
With `Nc1nc(=O)c2nc(CNc3ccc(C(=O)N[C@@H](CCC(=O)O)C(=O)O)cc3)cnc2[nH]1` [Folic acid], the benchmark concentration in the assay with CHO-K1 [1] (setting [3]) was 57 µM; with CHO-K1 [2] (setting [4]), 110 µM.
With `OCCCBr` [3-Bromo-1-propanol], the values for the benchmark concentration with CHO-K1 [1] (setting [4]) and in the assay with CHO-K1 [2] (setting [4]) were 110 µM and 73 µM, respectively.
Consider `CC1(C)NC(=O)N(c2ccc([N+](=O)[O-])c(C(F)(F)F)c2)C1=O` [Nilutamide], for which the benchmark concentration in the assay with CHO-K1 [1] (setting [4]) is 21 µM; in the assay with CHO-K1 [2] (setting [4]), 39 µM.
Regarding `N#CC(Br)Br` [Dibromoacetonitrile], the results for the benchmark concentration in the assay with CHO-K1 [1] (setting [4]) and with CHO-K1 [2] (setting [4]) were 32 µM and 15 µM, respectively.
`CN(C)c1ccc(C(=C2C=CC(=[N+](C)C)C=C2)c2ccc(N(C)C)cc2)cc1` [Gentian Violet]: the benchmark concentration in the assay on CHO-K1 [1] (setting [3]) amounted to 0.91 µM; in the assay on CHO-K1 [2] (setting [3]) it was 0.23 µM.
For the compound `O=C1CN(/N=C/c2ccc([N+](=O)[O-])o2)C(=O)N1` [Nitrofurantoin], the benchmark concentration in the assay with CHO-K1 [1] (setting [4]) stood at 55 µM; in the assay with CHO-K1 [2] (setting [4]), 31 µM.
On the same counts, the results for `COC(=O)NC(=S)Nc1ccccc1NC(=S)NC(=O)OC` [Thiophanate-methyl] are 16.7 ± 4.2 µM and 20.5 ± 3.5 µM.
On the same counts, the results for `CCCCCCCC1CCC(=O)O1` (centres undefined) [5-Heptyldihydro-2(3H)-furanone] are 75 µM and 79 µM.
Regarding `Cc1ccc2ncccc2c1` [6-Methylquinoline], the benchmark concentration is 22 µM in the assay on CHO-K1 [1] (setting [3]), 51 µM with CHO-K1 [2] (setting [3]) and 120 µM in the assay with CHO-K1 [2] (setting [4]).
In the case of `O=C(OC[C@H]1O[C@@H](OC(=O)c2cc(O)c(O)c(OC(=O)c3cc(O)c(O)c(O)c3)c2)[C@H](OC(=O)c2cc(O)c(O)c(OC(=O)c3cc(O)c(O)c(O)c3)c2)[C@@H](OC(=O)c2cc(O)c(O)c(OC(=O)c3cc(O)c(O)c(O)c3)c2)[C@@H]1OC(=O)c1cc(O)c(O)c(OC(=O)c2cc(O)c(O)c(O)c2)c1)c1cc(O)c(O)c(OC(=O)c2cc(O)c(O)c(O)c2)c1` [Tannic acid], the results for the benchmark concentration in the assay with CHO-K1 [1] (setting [3]), with CHO-K1 [2] (setting [3]) and in the assay on CHO-K1 [2] (setting [4]) were 0.9 µM, 1.3 µM and 0.84 µM, respectively.
`Cc1cccc(C)c1O` [2,6-Dimethylphenol]: the benchmark concentration with CHO-K1 [1] (setting [4]) worked out at 87 µM; with CHO-K1 [2] (setting [4]), 110 µM.
For `Nc1nc(=S)c2[nH]cnc2[nH]1` [6-Thioguanine], the benchmark concentration is 33 µM with CHO-K1 [1] (setting [3]), < 4.5 µM in the assay on CHO-K1 [1] (setting [4]) and 74 µM in the assay on CHO-K1 [2] (setting [3]).
Consider `C/C=C/C=C/C(=O)O` [Sorbic acid], for which the benchmark concentration in the assay on CHO-K1 [1] (setting [4]) stood at 29 µM; in the assay with CHO-K1 [2] (setting [4]) it was 37 µM.
Turning to `CC(O)CO` (centres undefined) [1,2-Propylene glycol], the benchmark concentration is 130 µM with CHO-K1 [1] (setting [4]) and 44 µM with CHO-K1 [2] (setting [4]).
`O=c1c(-c2ccc(O)cc2)coc2cc(O)ccc12` [Daidzein]: the results for the benchmark concentration in the assay on CHO-K1 [1] (setting [3]) and in the assay on CHO-K1 [2] (setting [3]) were 14 µM and 47 µM, respectively.
As for `CCC(C)(C)c1ccc(O)cc1` [4-(2-Methylbutan-2-yl)phenol], the values for the benchmark concentration with CHO-K1 [1] (setting [3]) and with CHO-K1 [2] (setting [4]) were 81 µM and 140 µM, respectively.
For the compound `O=C(CCl)c1ccccc1` [2-Chloroacetophenone], the benchmark concentration amounted to 60 µM with CHO-K1 [1] (setting [3]) and 62 µM with CHO-K1 [2] (setting [3]).
`Cc1cc(Cc2ccc(N)c(C)c2)ccc1N` [4,4'-Methylenebis(2-methylaniline)]: the figures for the benchmark concentration in the assay on CHO-K1 [1] (setting [4]) and with CHO-K1 [2] (setting [4]) were 37 µM and 33 µM, respectively.
Consider `O=C1NC(=O)C(c2ccccc2)(c2ccccc2)N1` [5,5-Diphenylhydantoin], for which the benchmark concentration in the assay on CHO-K1 [1] (setting [4]) is 13 µM; in the assay on CHO-K1 [2] (setting [4]), 17 µM.
For `CC1(C)C(=O)N(Cl)C(=O)N1Cl` [1,3-Dichloro-5,5-dimethylhydantoin], the benchmark concentration with CHO-K1 [1] (setting [4]) turned out to be 31 µM; in the assay on CHO-K1 [2] (setting [4]), 55 µM.
Turning to `c1ccc2c(c1)-c1cccc3c1c-2cc1ccccc13` [Benzo(b)fluoranthene], the benchmark concentration with CHO-K1 [1] (setting [4]) stood at 130 µM; in the assay with CHO-K1 [2] (setting [4]) it was 93 µM.
On the same counts, the results for `CN(Cc1cnc2nc(N)nc(N)c2n1)c1ccc(C(=O)N[C@@H](CCC(=O)O)C(=O)O)cc1` [Methotrexate] are 51 µM and 59 µM.
`CCOP(=S)(OCC)Oc1nc(Cl)c(Cl)cc1Cl` [Chlorpyrifos]: the benchmark concentration was determined as 29 µM in the assay with CHO-K1 [1] (setting [3]), 42 µM with CHO-K1 [2] (setting [3]) and 69 µM in the assay on CHO-K1 [2] (setting [4]).
Take `NC(=O)NO` [Hydroxyurea]: the benchmark concentration in the assay on CHO-K1 [1] (setting [4]) was 19 µM; in the assay on CHO-K1 [2] (setting [4]), 29 µM.
As to `Cc1cc(-c2ccc(N)c(C)c2)ccc1N` [3,3'-Dimethylbenzidine], the values for the benchmark concentration in the assay with CHO-K1 [1] (setting [4]) and with CHO-K1 [2] (setting [4]) were 99 µM and 20 µM, respectively.
Turning to `c1cc2c3c(cccc3c1)CC2` [Acenaphthene], the benchmark concentration with CHO-K1 [1] (setting [3]) was determined as 59 µM; in the assay with CHO-K1 [1] (setting [4]) it was 78 µM; with CHO-K1 [2] (setting [3]), 89 µM.
Turning to `Cc1ccc(O)cc1` [p-Cresol], the benchmark concentration with CHO-K1 [1] (setting [4]) was 73 µM; with CHO-K1 [2] (setting [4]), 79 µM.
For `OCCCl` [2-Chloroethanol], the benchmark concentration in the assay with CHO-K1 [1] (setting [4]) worked out at 60 µM; with CHO-K1 [2] (setting [4]), 130 µM.
As for `O=c1n(CC2CO2)c(=O)n(CC2CO2)c(=O)n1CC1CO1` (centres undefined) [Triglycidyl isocyanurate], the benchmark concentration is < 4.5 µM in the assay with CHO-K1 [1] (setting [3]), < 4.5 µM in the assay on CHO-K1 [1] (setting [4]), 53 µM in the assay with CHO-K1 [2] (setting [3]) and 25 µM in the assay with CHO-K1 [2] (setting [4]).
On to `CCN(CC)N=O` [N-Nitrosodiethylamine], for which the benchmark concentration in the assay on CHO-K1 [1] (setting [4]) was 21 µM; with CHO-K1 [2] (setting [4]), 31 µM.
Take `O=S1(=O)CCCO1` [1,3-Propane sultone]: the benchmark concentration in the assay on CHO-K1 [1] (setting [4]) came out at 110 µM; with CHO-K1 [2] (setting [4]), 80 µM.
On to `Nc1ccc(Oc2ccc(N)cc2)cc1` [4,4'-Oxydianiline], for which the values for the benchmark concentration in the assay with CHO-K1 [1] (setting [4]) and in the assay on CHO-K1 [2] (setting [4]) were 60 µM and 31 µM, respectively.
Consider `C[C@]12CC[C@@H]3c4ccc(O)cc4CC[C@H]3[C@@H]1CCC2=O` [Estrone], for which the values for the benchmark concentration in the assay on CHO-K1 [1] (setting [4]) and in the assay with CHO-K1 [2] (setting [4]) were < 4.5 µM and 5.3 µM, respectively.
As to `CC(C)(OO)c1ccccc1` [Cumene hydroperoxide], the benchmark concentration amounted to 56 µM in the assay on CHO-K1 [1] (setting [4]) and 63 µM in the assay on CHO-K1 [2] (setting [4]).
Take `C[C@]12CC[C@@H]3c4ccc(O)cc4CC[C@H]3[C@@H]1CC[C@@H]2O` [17beta-Estradiol]: the results for the benchmark concentration with CHO-K1 [1] (setting [4]) and with CHO-K1 [2] (setting [4]) were 8.1 µM and 9.9 µM, respectively.
On to `CC(=O)OC1CC(C)OC(C)O1` (centres undefined) [Dimethoxane], for which the figures for the benchmark concentration with CHO-K1 [1] (setting [3]), in the assay on CHO-K1 [1] (setting [4]) and in the assay with CHO-K1 [2] (setting [3]) were 86 µM, 30 µM and 59 µM, respectively.
Consider `Cc1ccc(C)c(O)c1` [2,5-Dimethylphenol], for which the benchmark concentration turned out to be 37 µM with CHO-K1 [1] (setting [4]) and 39 µM with CHO-K1 [2] (setting [4]).
Consider `O=[N+]([O-])c1ccc(O)c([N+](=O)[O-])c1` [2,4-Dinitrophenol], for which the benchmark concentration in the assay with CHO-K1 [1] (setting [4]) turned out to be 86 µM; in the assay with CHO-K1 [2] (setting [4]), 49 µM.
For `Cc1cccc2ccccc12` [1-Methylnaphthalene], the benchmark concentration in the assay on CHO-K1 [1] (setting [4]) was 57 µM; in the assay on CHO-K1 [2] (setting [4]) it was 110 µM.
As for `Nc1ccc(Nc2ccccc2)cc1` [N-Phenyl-1,4-benzenediamine], the benchmark concentration is 87 µM in the assay on CHO-K1 [1] (setting [3]) and < 4.5 µM with CHO-K1 [2] (setting [4]).
Take `CCNc1ccccc1` [N-Ethylaniline]: the results for the benchmark concentration in the assay on CHO-K1 [1] (setting [4]) and with CHO-K1 [2] (setting [4]) were 77 µM and 35 µM, respectively.
Consider `c1ccc2c(c1)Nc1ccccc1S2` [Phenothiazine], for which the figures for the benchmark concentration in the assay on CHO-K1 [1] (setting [3]) and with CHO-K1 [2] (setting [3]) were 17 µM and 25 µM, respectively.
Regarding `Oc1cc(Cl)c(Cl)cc1Cl` [2,4,5-Trichlorophenol], the benchmark concentration was determined as 6.5 µM with CHO-K1 [1] (setting [3]) and 38 µM in the assay with CHO-K1 [2] (setting [4]).
Consider `NC1CCCCC1` [Cyclohexylamine], for which the benchmark concentration in the assay on CHO-K1 [1] (setting [4]) is 72 µM; with CHO-K1 [2] (setting [4]), 43 µM.
As for `COC(=O)c1ccccc1O` [Methyl salicylate], the benchmark concentration in the assay with CHO-K1 [1] (setting [3]) was 58 µM; with CHO-K1 [1] (setting [4]), 15 µM; in the assay on CHO-K1 [2] (setting [4]) it was 67 µM.
